Article PMC12746157, “Light-Regulated Agonists Spatiotemporally Activating the Vitamin D Receptor Mitigate Psoriasis-like Inflammation in Mice without Inducing Hypercalcemia” (ACS Central Science, 2025)

What was measured:
[1] = Proportions of cis and trans at the photostationary state in DMSO from absorbance spectra (Ernst Fischer method); format: physicochemical
Method: 2. Photochemical characterization.
(§1) A 50 µM solution of each compound in DMSO was dispensed into a transparent 96-well plate (200 µL per well). The absorption spectra were recorded from 300 to 600 nm with 2 nm fixed intervals using a Tecan Spark 20M Multimode microplate reader. Initial measurements were performed in the dark, followed by spectra acquired immediately after each 3 min period of light irradiation at different wavelengths using 96-well LED array plates (LEDA Teleopto). Theoretical absorbance spectra corresponding to the pure cis isomer (100%) of each compound were calculated in order to obtain the theoretical percentage of cis isomer at each wavelength, according to the method described by Ernst Fischer (1967). […]
Table S6. Proportions of cis and trans at the photostationary state in DMSO. […]

[2] = UV-Vis absorption spectra and thermal relaxation of the cis isomers in DMSO; format: physicochemical; settings: 60 μM in 100% DMSO, 37 °C; for λn−π* (cis): after illumination; for λπ–π* (trans): dark
Method: The UV–vis absorbance spectra of all molecules were measured in the dark and after the application of light of different wavelengths ranging from 365 to 770 nm (Figure A and Figures S1–S3). […] Consequently, violet/UV light below 405 nm efficiently promoted photoisomerization, which produced a dramatic decrease in the π-π* band and a significant increase in the n-π* band at around 445 nm (Table ). […] The proportion of molecules at the PSS in trans isomer upon constant illumination with light at 525 nm and cis at 365 nm was in general above 50%, reaching a remarkable >99% for compound 11d (Table and Figures S4 and S5). […] The greater stability of the trans isomer was consistent with previous quantum mechanical and molecular mechanics predictions. Measuring the photoisomerization properties of compound PhotoVDRM allowed us to determine the photoisomerization quantum yields of the compound by solving a differential equation for photoisomerization. We used MATLAB to perform regression and arrive at the following photoisomerization quantum yields: ϕ365 nm (trans) = 0.0427, ϕ365 nm (cis) = 0.0501, ϕ470 nm (trans) = 0.1857, and ϕ470 nm (cis) = 0.2281 (Figure S9). Compound PhotoVDRM was also evaluated in aqueous buffer used for pharmacological experiments (0.5% DMSO) showing a thermal relaxation of 3 h, almost 7 times faster than in pure DMSO (Figure B). […] A deeper photocharacterization of PhotoVDRM allowed us to measure the kinetics of photoconversion upon constant illumination with two wavelengths and three light intensities (Figure D and Figure S10). […] Indeed, with LED devices producing light at intensities as low as 0.05 mW/mm^2 we were able to transform trans to cis in around 15.5 s. This time was reduced to 6 and 2 s when the light intensity was increased to 0.15 and 0.75 mW/mm^2. […] Therefore, we proceeded to test the ability of the chemical library to activate the VDR under different light conditions.
2. Photochemical characterization. […]
as §1, with “(200” for “A 50 µM solution of each compound in DMSO was dispensed into a transparent 96-well plate (200”, “(1967). Thermal relaxation kinetics of the experimental cis isomers were assessed in quartz cuvettes (10 mm optical path) containing freshly prepared 50” for “(1967).”
Dark state absorbance at 365 nm was recorded at 37
ºC using a ThermoFisher Evolution 350 UV-Vis spectrophotometer. Samples were then irradiated for 3 minutes at 365 nm with a CoolLED pE-4000 light sourceto induce trans → cis photoisomerization.. Absorbance at 365 nm was subsequently monitored over 48 h: every 15 min during the first 24 h, and every 60 min during the following 24 h. Relaxation half-lives were determined by fitting the absorbance-time data to a […] exponential model using GraphPad Prism v10.4.1. […]

SMILES	%cis at the photostationary state ([1]; 365 nm)	%trans at the photostationary state ([1]; 365 nm)	%cis at the photostationary state ([1]; 380 nm)	%trans at the photostationary state ([1]; 380 nm)	%cis at the photostationary state ([1]; 405 nm)	%trans at the photostationary state ([1]; 405 nm)	%cis at the photostationary state ([1]; 420 nm)	%trans at the photostationary state ([1]; 420 nm)	%cis at the photostationary state ([1]; 470 nm)	%trans at the photostationary state ([1]; 470 nm)	%cis at the photostationary state ([1]; 500 nm)	%trans at the photostationary state ([1]; 500 nm)	%cis at the photostationary state ([1]; 530 nm)	%trans at the photostationary state ([1]; 530 nm)	t 1/2 (thermal relaxation of cis) [2] [h]	λn−π* (cis) [2] [nm]	λπ–π* (trans) [2] [nm]
Cc1cc(OCC(O)C(C)(C)C)ccc1/N=N/c1cccc(-c2ccc(C(=O)O)cc2C)c1 (stereo not shown) [Compound 11d]	96,79%	3,21%	95,58%	4,42%	61,42%	38,58%	54,69%	45,31%	28,11%	71,89%	29,74%	70,26%	25,59%	74,41%	17.7	444	362
Cc1cc(OCC(O)C(C)(C)C)ccc1/N=N/c1cccc(-c2ccc(CO)cc2C)c1 (stereo not shown) [Compound 12d]	96,92%	3,08%	95,77%	4,23%	63,77%	36,23%	60,13%	39,87%	32,14%	67,86%	33,18%	66,82%	29,47%	70,53%	8.2	446	362
